Reference: patent US7544497B2, “Compositions for manipulating the lifespan and stress response of cells and organisms” (President and Fellows of Harvard College, priority 2003, dated 2009)

Experiments:
[1] = test system: rDNA recombination; assay: Ribosomal DNA recombination frequency (loss of ADE2 marker); type: cell-based, S. cerevisiae; details: SIR2-dependent
[2] = target: T1, recombinant dSir2 (Drosophila melanogaster, UniProt Q9VK34); assay: dSir2 deacetylation assay (Fluor de Lys); type: biochemical, D. melanogaster; details: dose-dependent; 25 μM NAD+, 10 μM FdL
T1 sequence (Q9VK34 1-823): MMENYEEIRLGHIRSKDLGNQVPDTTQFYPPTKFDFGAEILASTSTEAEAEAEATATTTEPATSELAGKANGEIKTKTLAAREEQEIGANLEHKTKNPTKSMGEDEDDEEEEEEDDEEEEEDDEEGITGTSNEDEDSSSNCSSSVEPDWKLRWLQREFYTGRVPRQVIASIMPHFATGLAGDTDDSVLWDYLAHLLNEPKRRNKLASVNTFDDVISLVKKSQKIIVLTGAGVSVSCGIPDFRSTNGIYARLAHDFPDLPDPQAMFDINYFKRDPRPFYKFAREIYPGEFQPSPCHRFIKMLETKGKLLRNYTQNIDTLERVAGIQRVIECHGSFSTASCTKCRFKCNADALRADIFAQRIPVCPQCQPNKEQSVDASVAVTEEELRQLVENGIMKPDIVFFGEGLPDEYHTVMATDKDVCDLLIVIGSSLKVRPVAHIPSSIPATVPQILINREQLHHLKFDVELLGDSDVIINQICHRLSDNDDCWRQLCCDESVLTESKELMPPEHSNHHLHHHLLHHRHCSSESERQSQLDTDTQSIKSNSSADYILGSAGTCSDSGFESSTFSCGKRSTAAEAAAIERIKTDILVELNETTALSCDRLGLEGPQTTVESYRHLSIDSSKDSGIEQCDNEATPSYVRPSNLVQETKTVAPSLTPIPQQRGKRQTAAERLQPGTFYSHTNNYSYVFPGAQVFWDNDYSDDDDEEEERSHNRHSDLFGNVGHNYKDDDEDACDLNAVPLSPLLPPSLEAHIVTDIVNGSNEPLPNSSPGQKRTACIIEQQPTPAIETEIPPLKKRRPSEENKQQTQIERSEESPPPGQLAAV
Method: His6-tagged recombinant SIR-2.1 and dSir2 were purified from E. coli BL21(DE3) plysS cells harboring either pET28a-sir-2.1 or pRSETc-dSir2 plasmids. Cells were grown in LB medium containing kanamycin (50 μg/mL) for pET28a-sir-2.1 or ampicillin (100 μg/ml) and chloramphenicol (25 μg/ml) for pRSETc-dSir2 at 30° C. (dSir2) or 37° C. (SIR-2.1) to an OD600 of 0.6-0.8.
From 0.1 to 1 μg of SIR-2.1 and 1 μg of dSir2 were used per deacetylation assay as previously described with modifications (SIR-2.1: 200 μM NAD^+, 10 μM Fluor de Lys, FdL; dSir2: 25 μM NAD^+, 10 μM FdL)^26. […] Drosophila S2 cells were grown in Schneider media with fetal calf serum at 23-28° C., seeded at 9×10^4 cells/well, grown overnight and then exposed to 1 μM TSA, 500 μM polyphenols, and 200 μM FdL for 2 hr. […] Unless otherwise indicated all initial rate measurements were means of three or more replicates obtained with single incubation times, at which point 5% or less of the substrate initially present was deacetylated.

[3] = test system: D. melanogaster; assay: D. melanogaster adult survival assay; type: in vivo
Method: Survival assays were conducted independently with adult D. melanogaster in two laboratories. In the first laboratory, all trials used an yw marked wild-type strain. […] Newly eclosed adults were placed in 1L demography cages with approximately 75 males and 75 females. Three to four replicate 1L demography cages were used for each treatment group in each trial. Every two days, dead flies were removed and scored, and food vials were replenished. Food vials contained cornmeal-sugar-yeast diet with SAF yeast as either 2% or 3% by weight. […] Fresh stock solutions and adult media were prepared weekly. In the second laboratory, lifespan trials were conducted with the wild type strain Canton-S, dSir2^4.5 and […], University of Oregon), […], Stockholm University, Sweden), and dSir2^KG00871 (Drosophila Stock Center, Bloomington, Ind.). Larvae for all tests were reared on standard cornmeal-sugar-yeast diet. […] In all trials, 20 males with 20 females were placed into each of 10 vials/treatment group. Every two days, flies were passed into new vials and dead flies were counted. […] Fresh stock solution and adult media was prepared weekly.

For `Oc1ccc(/C=C/c2cc(O)cc(O)c2)cc1` [Resveratrol, 3,5,4′-Trihydroxy-trans-stilbene], the “reduction of the frequency of rDNA recombination” value [1] was roughly 60%, the “stimulation of deacetylation, dSir2 (up to)” value [2] was no more than 2.4 fold and the “lifespan increase (up to)” value ([3]; Canton-S/dSir2^KG0087) was “up to 17%”. The “lifespan in flies lacking or severely decreased in dSir2” value ([3]; dSir2^4.5/dSir2^5.26 or dSir2^17/dSir2^KG00871, 100 μM) was “failed to extend lifespan”, the “longevity increase in flies homozygous for a hypomorphic dSir2 allele” value ([3]; dSir2^KG0087/dSir2^KG0087) was “small but statistically significant amount” and the “longevity on restricted diet” value ([3]; restricted diet) was “neither resveratrol nor fisetin further increased longevity”. The “lifespan extension (up to)” value ([3]; wild type, males and females, independent tests) was “up to 29%”.
